Consider 16 molecules from EP4778929A1, “NOVEL TYPE I TOPOISOMERASE INHIBITOR, AND PREPARATION METHOD THEREFOR AND USE THEREOF” (priority 2023, dated 2025).

One assay concerns the target T1, topoisomerase I (Topo I) (Homo sapiens, UniProt P11387).
T1 sequence (P11387 1-765): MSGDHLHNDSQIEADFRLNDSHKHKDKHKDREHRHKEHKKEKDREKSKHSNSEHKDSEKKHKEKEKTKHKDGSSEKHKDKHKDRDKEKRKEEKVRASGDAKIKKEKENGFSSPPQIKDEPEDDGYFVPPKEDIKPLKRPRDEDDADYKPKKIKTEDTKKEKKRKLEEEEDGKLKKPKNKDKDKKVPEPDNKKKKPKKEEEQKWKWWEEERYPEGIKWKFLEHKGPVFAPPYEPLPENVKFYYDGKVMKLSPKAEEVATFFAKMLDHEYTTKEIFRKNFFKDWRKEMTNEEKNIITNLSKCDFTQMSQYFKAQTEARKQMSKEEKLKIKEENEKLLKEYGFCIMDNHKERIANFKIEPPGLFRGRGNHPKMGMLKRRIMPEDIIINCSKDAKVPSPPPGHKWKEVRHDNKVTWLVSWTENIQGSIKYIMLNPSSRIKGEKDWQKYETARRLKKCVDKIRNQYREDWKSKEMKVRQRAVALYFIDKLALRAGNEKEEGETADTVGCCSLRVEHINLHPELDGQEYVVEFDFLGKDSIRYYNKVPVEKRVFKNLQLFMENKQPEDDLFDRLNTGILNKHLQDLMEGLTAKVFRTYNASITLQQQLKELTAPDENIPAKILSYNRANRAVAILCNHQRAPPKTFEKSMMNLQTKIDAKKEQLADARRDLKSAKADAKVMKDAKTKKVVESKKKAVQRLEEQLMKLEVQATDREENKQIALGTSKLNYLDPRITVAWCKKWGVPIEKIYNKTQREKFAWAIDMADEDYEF
The experiment in a line: Topo I enzyme-inhibitory activity by agarose-gel electrophoresis (plasmid relaxation). The assay is classed as biochemical. A digest of the protocol: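 Supercoiled pNO1 plasmid (0.5 µg) was relaxed by Topo I (0.75 U) in 20 mM Tris-HCl pH 7.5, 200 mM NaCl, 0.25 mM EDTA, 5 % glycerol, 5 % DMSO final, for 30 min at 37 °C. Supercoiled band intensity on agarose gel was normalized to no-enzyme and vehicle controls. IC50 from a four-parameter logistic fit.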

A further assay has as its system HCT116 cells. Kind of assay: Inhibition of cell proliferation by CTG (CellTiter-Glo) luminescence assay. In kind it is cell-based. The following applies: Homo sapiens, read-out: HCT116, IC50. A digest of the protocol: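 Nine-point 1:3 dilutions applied to HCT116 cells (2 000/well, McCoy's 5a + 10 % FBS) for 72 h at 37 °C, final DMSO 0.25 %. Viability read by CellTiter-Glo luminescence; % inhibition versus DMSO controls fitted to four-parameter logistic for IC50.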
A general note: ATP-based viability assays read luminescence as a measure of living cells.

Assay [1] has as its system Human colon cancer HCT116 cells. Kind of assay: Subcutaneous xenograft model of human colon cancer HCT-116 cells. The assay is classed as in vivo, BALB/c nude mice. Particulars: day 21 post-treatment, 5 mg/kg, IV, BIW×3W. The procedure: Test Example 4. Pharmacodynamic Evaluation of Compound 2, Compound 250, and Compound 253 in a Subcutaneous Xenograft Model of Human Colon Cancer HCT-116 Cells in BALB/c Female Nude Mice
Human colon cancer HCT116 cells were cultured in vitro as monolayers in McCoys 5a medium supplemented with 10% fetal bovine serum and 1% penicillin/streptomycin/amphotericin B at 37 °C in a 5% CO2 incubator. Cells were routinely passaged twice a week using trypsin-EDTA digestion. When cells reached 80%-90% confluence and the required cell number was achieved, cells were harvested. HCT116 cells (0.1 mL, 5×10^6 cells) were subcutaneously inoculated into the right dorsal region near the upper forelimb of each mouse (BALB/c nude mice, female, 6-8 weeks old). Treatment was initiated when the average tumor volume reached approximately 158 mm^3. Tumor volume was measured twice weekly. At the end of the experiment, the tumor growth inhibition rate (TGI) was calculated as: TGI (%) = [1 - (average tumor volume at the end of treatment in a particular group - average tumor volume at the start of treatment in that group) / (average tumor volume at the end of treatment in the vehicle control group - average tumor volume at the start of treatment in the vehicle control group)] × 100%.
(§1) Experimental Groups and Dosing Regimen:
• 1, Vehicle control group • 2, Compound 2, 5 mg/kg, IV, BIW×3W • 3, Compound 250, 5 mg/kg, IV, BIW×3W • 4, Compound 253, 5 mg/kg, IV, BIW×3W

In assay [2] the test system is Human colon cancer CR00090 cells. The experiment in a line: CR00090 human colon cancer model (subcutaneous). In kind it is in vivo, NPSG mice. The following applies: day 28 post-treatment, 5 mg/kg, IV, BIW×4W. The procedure: Test Example 5: Pharmacodynamic Evaluation of Compound 117, Compound 250, and Compound 253 in the CR00090 Human Colon Cancer Model
Human colon cancer CR00090 cells were thawed, counted, and mixed with Matrigel at a 1:1 ratio. Then, 0.1 mL (5×10^5 cells) of CR00090 cells were subcutaneously inoculated into the right dorsal region near the upper forelimb of each mouse (NPSG mice, female, 6-8 weeks old). Treatment was initiated when the average tumor volume reached approximately 84 mm^3. Tumor volume was measured twice weekly. At the end of the experiment, the tumor growth inhibition rate (TGI) was calculated as: TGI (%) = [1 - (average tumor volume at the end of treatment in a particular group - average tumor volume at the start of treatment in that group) / (average tumor volume at the end of treatment in the vehicle control group - average tumor volume at the start of treatment in the vehicle control group)] × 100%.
as §1
• 1, Vehicle control group • 2, Compound 117, 5 mg/kg, IV, BIW×4W • 3, Compound 250, 5 mg/kg, IV, BIW×4W • 4, Compound 253, 5 mg/kg, IV, BIW×4W

[3] abbreviates: read-out: inhibition of topoisomerase I (Topo I) enzymatic activity, IC50; 0.75 U Topo I, pNO1 plasmid, 37 °C, 30 min; compounds listed by group (Group A / Group B).
The mark [4] stands for this setting: 0.75 U Topo I, pNO1 plasmid, 37 °C, 30 min; compounds listed by group (Group A / Group B); read-out: inhibition of topoisomerase I (Topo I) enzymatic activity, IC50.
[5] abbreviates: HCT-116, 72 h incubation, CellTiter-Glo.

Read-outs that look alike come from different tables or passages of the source.

`CC[C@@]1(O)C(=O)OCc2c1cc1n(c2=O)Cc2c-1c(=O)c1cc(F)cc(C)c1n2CCNC1CCCC1` [Example 168]: the IC50 at topoisomerase I (Topo I) (setting [3]) was 200 to 500 nM; in the assay with HCT116 cells (HCT-116, 72 h) it was below 20 nM.
`CC[C@@]1(O)C(=O)OCc2c1cc1n(c2=O)Cc2c-1c(=O)c1cc(F)cc(C)c1n2CCNC1CC1` [Example 169]: the IC50 on topoisomerase I (Topo I) (setting [3]) was 200 to 500 nM; in the assay on HCT116 cells (HCT-116, 72 h) it was below 20 nM.
For the molecule `CC[C@@]1(O)C(=O)OCc2c1cc1n(c2=O)Cc2c-1c(=O)c1cc(F)cc(C)c1n2CCN(C1CCCC1)C1CC1` [Example 171], the IC50 on topoisomerase I (Topo I) (setting [3]) was 200 to 500 nM; with HCT116 cells (HCT-116, 72 h) it was below 20 nM.
Regarding `CC[C@@]1(O)C(=O)OCc2c1cc1n(c2=O)Cc2c-1c(=O)c1cc(F)cc(C)c1n2CCN(C)C1CCCC1` [Example 172], the IC50 was 200 to 500 nM at topoisomerase I (Topo I) (setting [3]) and below 20 nM in the assay with HCT116 cells (HCT-116, 72 h).
Turning to `CC[C@@]1(O)C(=O)OCc2c1cc1n(c2=O)Cc2c-1c(=O)c1cc(F)ccc1n2CCN1CC2(CC2)C1` [Example 182, (S)-11-(2-(5-azaspiro[2.3]hexan-5-yl)ethyl)-4-ethyl-8-fluoro-4-hydroxy-1,12-dihydro-14H-pyrano[3',4':6,7]indolizino[2,1-b]quinoline-3,6,14(4H,11H)-trione], the IC50 is 200 to 500 nM on topoisomerase I (Topo I) (setting [4]) and below 20 nM in the assay with HCT116 cells (setting [5]).
For `CC[C@@]1(O)C(=O)OCc2c1cc1n(c2=O)Cc2c-1c(=O)c1cc(F)ccc1n2CCN1CCCC1(C)C` [Example 184], the half-maximal inhibitory concentration (IC50) is below 200 nM at topoisomerase I (Topo I) (setting [3]) and below 20 nM in the assay with HCT116 cells (HCT-116, 72 h).
Regarding `CC[C@@]1(O)C(=O)OCc2c1cc1n(c2=O)Cc2c-1c(=O)c1cc(F)ccc1n2CCN1CCC(C)(C)CC1` [Example 185], the IC50 at topoisomerase I (Topo I) (setting [3]) is 200 to 500 nM; in the assay with HCT116 cells (HCT-116, 72 h) it was below 20 nM.
`CC[C@@]1(O)C(=O)OCc2c1cc1n(c2=O)Cc2c-1c(=O)c1cc(F)ccc1n2CCN1CC(F)(F)C1` [Example 186]: the IC50 was 200 to 500 nM at topoisomerase I (Topo I) (setting [4]) and below 20 nM with HCT116 cells (setting [5]).
For `CC[C@@]1(O)C(=O)OCc2c1cc1n(c2=O)Cc2c-1c(=O)c1cc(F)ccc1n2CCN1C2CCC1CC(F)(F)C2` [Example 187], the IC50 at topoisomerase I (Topo I) (setting [3]) is 200 to 500 nM; with HCT116 cells (HCT-116, 72 h) it was below 20 nM.
For the molecule `CC[C@@]1(O)C(=O)OCc2c1cc1n(c2=O)Cc2c-1c(=O)c1cc(F)ccc1n2CCN1CCC(F)(F)CC1` [Example 190], the IC50 at topoisomerase I (Topo I) (setting [3]) is below 200 nM; in the assay with HCT116 cells (HCT-116, 72 h), below 20 nM.
The like results for `CC[C@@]1(O)C(=O)OCc2c1cc1n(c2=O)Cc2c-1c(=O)c1cc(F)c(CN(C)C3CC3)cc1n2C1CC1` [Example 225] were, in that order, 200 to 500 nM and below 20 nM.
The corresponding values for `CC[C@@]1(O)C(=O)OCc2c1cc1n(c2=O)Cc2c-1c(=O)c1cc(F)c(CNC3CC3)cc1n2C1CCCC1` [Example 227] are 200 to 500 nM and below 20 nM.
Regarding `CC[C@@]1(O)C(=O)OCc2c1cc1n(c2=O)Cc2c-1c(=O)c1cc(F)c(CN(C)C3CC3)cc1n2C1CCCC1` [Example 228], the figures for the IC50 at topoisomerase I (Topo I) (setting [4]) and in the assay with HCT116 cells (setting [5]) were 200 to 500 nM and below 20 nM, respectively.
`CC[C@@]1(O)C(=O)OCc2c1cc1n(c2=O)Cc2c-1c(=O)c1cc(F)ccc1n2[C@@H]1CCN(C2CCC2)C1` [Example 253, (S)-4-ethyl-8-fluoro-4-hydroxy-11-((R)-1-cyclobutylpyrrolidin-3-yl)-1,12-dihydro-14H-pyrano[3',4':6,7]indolizino[2,1-b]quinoline-3,6,14(4H,11H)-trione]: the IC50 in the assay on HCT116 cells (setting [5]) was below 20 nM. Further, the TGI in assay [1] is reported as 80.6%; in assay [2], 76.3%. Further, the tumor volume in assay [1] (vehicle control 1146 mm^3) is 351 mm^3; in assay [2] (vehicle control 1093 mm^3), 323 mm^3.
For the molecule `CC[C@@]1(O)C(=O)OCc2c1cc1n(c2=O)Cc2c-1c(=O)c1cc(F)c(N)cc1n2-c1ccc2c(c1)OC(F)(F)O2` [Example 354], the IC50 at topoisomerase I (Topo I) (setting [3]) was below 200 nM; with HCT116 cells (HCT-116, 72 h), below 20 nM.
As to `CC[C@@]1(O)C(=O)OCc2c1cc1n(c2=O)Cc2c-1c(=O)c1cc(F)c(N)cc1n2-c1cc(OC)cc(C(C)C)c1` [Example 355], the results for the IC50 on topoisomerase I (Topo I) (setting [4]) and in the assay on HCT116 cells (setting [5]) were 200 to 500 nM and below 20 nM, respectively.

Broadly, the IC50 is the concentration at which inhibition is half-maximal.
